Reference: ChEMBL document CHEMBL1150150, “New dammarane and malabaricane triterpenes from Caloncoba echinata” (J Nat Prod, 2002)

How the values were obtained:
[1] = Effect on human erythrocyte morphology assessed as transformation of erythrocytes to spherostomatocytes at 25 to 100 ug/mL after 48 hrs by Giemsa staining; assay type: ADME, cell-based
[2] = Effect on human erythrocyte morphology assessed as transformation of erythrocytes to stomatocytes S2 type at 25 to 100 ug/mL after 48 hrs by Giemsa staining; assay type: ADME, cell-based
[3] = Effect on human erythrocyte morphology assessed as transformation of erythrocytes to stomatocytes S1 type at 25 to 100 ug/mL after 48 hrs by Giemsa staining; assay type: ADME, cell-based
[4] = Effect on morphology of human erythrocytes assessed as occurrence of normal discocytes at 6.25 ug/mL after 48 hrs by Giemsa staining; assay type: ADME, cell-based; details: erythrocyte
[5] = Toxicity in human erythrocytes assessed as transformation of erythrocytes to stomatocytes at 0.625 after 48 hrs by Giemsa staining; assay type: cell-based; details: erythrocyte
[6] = Effect on human erythrocyte morphology assessed as transformation of erythrocytes to stomatocytes S1 type at 12.5 ug/mL after 48 hrs by Giemsa staining; assay type: ADME, cell-based
[7] = tested on: Plasmodium falciparum; assay: Antiplasmodial activity against chloroquine-sensitive Plasmodium falciparum 3D7 after 48 hrs by [3H]phenylalanine uptake
[8] = Effect on morphology of human erythrocytes assessed as transformation of erythrocytes to stomatocytes S1 type at 6.25 ug/mL after 48 hrs by Giemsa staining; assay type: ADME, cell-based; details: erythrocyte
[9] = Effect on human erythrocyte morphology assessed as transformation of erythrocytes to stomatocytes after 48 hrs by Giemsa staining; assay type: ADME, cell-based
[10] = Toxicity in human erythrocyte assessed as lysis at 25 to 100 ug/mL after 48 hrs by Giemsa staining; assay type: cell-based
[11] = Effect on human erythrocyte morphology assessed as ghost cell formation at 50 to 100 ug/mL after 48 hrs by Giemsa staining; assay type: ADME, cell-based
[12] = Toxicity in human erythrocytes assessed as lysis at 12.5 ug/mL after 48 hrs by Giemsa staining; assay type: cell-based; details: erythrocyte
[13] = Effect on morphology of human erythrocytes assessed as transformation of erythrocytes to stomatocytes S2 type at 6.25 ug/mL after 48 hrs by Giemsa staining; assay type: ADME, cell-based; details: erythrocyte

Row | SMILES | Activity [1] | Activity [2] | Activity [3] | Activity [4] | Activity [5] | Activity [6] | IC50 [7] [µg/mL] | Activity [8] | Activity [9] | Activity [10] | Activity [11] | Activity [12] | Activity [13]
1 | C=C(CC[C@H](O)[C@@]1(C)CC[C@H](C(C)(C)O)O1)[C@H]1CC[C@H]2[C@@]1(C)CC[C@H]1C(C)(C)C(=O)CC[C@]21C | Toxic | Toxic | Toxic | Non-toxic | Non-toxic | Toxic | < 12 | Toxic | Toxic | Toxic | Toxic |  | 
2 | C=C(CC[C@@H](O)[C@]1(C)CC[C@H](C(C)(C)O)O1)[C@H]1CC[C@H]2[C@@]1(C)CC[C@H]1C(C)(C)C(=O)CC[C@]21C | Toxic | Toxic | Toxic | Non-toxic | Non-toxic | Toxic | < 12 | Toxic | Toxic | Toxic | Toxic |  | 
3 | CC(C)=CCC[C@@](C)(O)[C@H]1CC[C@]2(C)[C@@H]1C[C@@H](O)[C@@H]1[C@@]3(C)CCC(=O)C(C)(C)[C@@H]3CC[C@]12C | Toxic | Toxic | Toxic | Non-toxic | Non-toxic | Toxic | < 12 | Toxic | Toxic | Toxic | Toxic | Non-toxic | Toxic
